Data reported in patent US20060069132A1, “Azolecarboxamide herbicides” (priority 2004, published 2006).

Experiments:
velvetleaf = assay: Test A pre-/postemergence herbicide test; assay type: in vivo, Abutilon theophrasti
How it was run: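 Visual injury rating on a 0–100 scale (0 no effect, 100 complete control) versus untreated controls, about ten days after treatment in greenhouse. Pre: directed soil spray onto seeded sandy loam. Post: spray to runoff on plants 2–10 cm tall at one- to two-leaf stage.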

Surinam grass = assay: Test C pre-/postemergence herbicide test; assay type: in vivo, Urochloa decumbens; settings: preemergence
How it was run: (§1)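 Pre- and postemergence application, solvent/surfactant formulation; post at 1- to 4-leaf stage (2–18 cm). Greenhouse 12–14 d. Visual rating vs controls, 0 = no effect, 100 = complete control.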

corn = assay: Test C pre-/postemergence herbicide test; assay type: in vivo, Zea mays; settings: preemergence
How it was run: as §1

giant foxtail = assay: Test C pre-/postemergence herbicide test; assay type: in vivo, Setaria faberi; settings: preemergence
How it was run: as §1

kochia = assay: Test C pre-/postemergence herbicide test; assay type: in vivo, Kochia scoparia; settings: preemergence
How it was run: as §1

morningglory = assay: Test C pre-/postemergence herbicide test; assay type: in vivo, Ipomoea coccinea; set-up: key to Plant response rating, Morningglory: 0 = no effect, 100 = complete control; settings: preemergence
How it was run: as §1

common ragweed = assay: Test C pre-/postemergence herbicide test; assay type: in vivo, Ambrosia elatior; set-up: key to Plant response rating, Ragweed: 0 = no effect, 100 = complete control; settings: preemergence
How it was run: as §1

soybean = assay: Test C pre-/postemergence herbicide test; assay type: in vivo, Glycine max; settings: preemergence
How it was run: as §1

rice = assay: Test C flooded paddy test; assay type: in vivo, Oryza sativa
How it was run: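 Postemergence sprays applied to plants 2 to 18 cm tall (1- to 4-leaf stage); paddy species grown to 2-leaf stage under flooding. After 12 to 14 days in greenhouse, visual rating versus untreated controls on 0–100 scale (0 no effect, 100 complete control).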

[1] = tested on: smallflower umbrella sedge; assay: Test C flooded paddy test; assay type: in vivo, Cyperus difformis
barnyardgrass = assay: Test C flooded paddy test; assay type: in vivo, Echinochloa crus-galli
How it was run: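 Injury scored visually against controls on a 0 (no effect) to 100 (complete control) scale, 12 to 14 days after treatment in greenhouse. Flooded paddy plants treated at 2-leaf stage; postemergence plants at 1- to 4-leaf stage, 2 to 18 cm tall.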

[2] = 500 g ai/ha, scale 0 to 100 (0 no effect, 100 complete control), visual, 12 to 14 days
[3] = 125 g ai/ha, scale 0 (no effect) to 100 (complete control), visual, 12 to 14 days
[4] = 125 g ai/ha, scale 0 to 100 (0 no effect, 100 complete control)
[5] = 250 g ai/ha, scale of 0 to 100, 0 is no effect, 100 is complete control
[6] = 500 g ai/ha, visual rating after 12 to 14 days, scale 0 to 100 (0 no effect, 100 complete control)

Structure (SMILES): CCNC(=O)c1ccc(F)c(NC(=O)C2CC(C(C)(C)C)=NN2CC)c1 (racemic) [Compound 269]
- Velvetleaf plant response rating (velvetleaf; Postemergence, 500 g ai/ha, 0 to 100 scale, 0 no effect, 100 complete control): 25
- Plant response rating, Velvetleaf (velvetleaf; Postemergence, 2000 g ai/ha, 0 to 100 scale, 0 no effect, 100 complete control): 30
- Velvetleaf plant response rating (velvetleaf; Preemergence, 2000 g ai/ha, visual rating, 0 to 100 scale (0 no effect, 100 complete control)): 100
- Velvetleaf plant response rating (velvetleaf; preemergence, 500 g ai/ha, visual injury, 0 to 100 scale (0 no effect, 100 complete control)): 40
- Plant response rating, Surinam Grass (Surinam grass; 62 g ai/ha, scale 0 to 100): 5
- Plant response rating, Surinam Grass (Surinam grass; 250 g ai/ha, scale 0-100): 85
- Plant response rating, Surinam Grass (Surinam grass; [2]): 95
- Plant response rating, Corn (corn; [3]): 20
- Plant response rating, Corn (corn; 250 g ai/ha, scale 0-100): 40
- Plant response rating, Corn (corn; [2]): 55
- Plant response rating, Foxtail, Giant (giant foxtail; 62 g ai/ha, scale 0 to 100): 50
- Plant response rating, Foxtail, Giant (giant foxtail; [3]): 90
- Plant response rating, Foxtail, Giant (giant foxtail; 250 g ai/ha, scale 0-100): 100
- Plant response rating, Foxtail, Giant (giant foxtail; [2]): 100
- Plant response rating, Kochia (kochia; 62 g ai/ha, scale 0 to 100): 70
- Plant response rating, Kochia (kochia; [3]): 100
- Plant response rating, Kochia (kochia; 250 g ai/ha, scale 0-100): 100
- Plant response rating, Kochia (kochia; [2]): 100
- Plant response rating, Morningglory (morningglory; 62 g ai/ha, scale 0 to 100): 0
- Plant response rating, Morningglory (morningglory; [3]): 5
- Plant response rating, Morningglory (morningglory; 250 g ai/ha, scale 0-100): 10
- Plant response rating, Morningglory (morningglory; [2]): 40
- Plant response rating, Ragweed (common ragweed; 62 g ai/ha, scale 0 to 100): 5
- Plant response rating, Ragweed (common ragweed; 250 g ai/ha, scale 0-100): 90
- Plant response rating, Ragweed (common ragweed; [2]): 90
- Plant response rating, Soybean (soybean; 62 g ai/ha, scale 0 to 100): 0
- Plant response rating, Soybean (soybean; 250 g ai/ha, scale 0-100): 50
- Plant response rating, Soybean (soybean; [2]): 60
- Rice plant response rating (rice; 62 g ai/ha, scale 0 to 100): 45
- Rice plant response rating (rice; [4]): 50
- Rice plant response rating (rice; [5]): 75
- Plant response rating, Rice (rice; [6]): 80
- Sedge, Umbrella plant response rating ([1]; 62 g ai/ha, scale 0 to 100): 45
- Sedge, Umbrella plant response rating [1, 4]: 80
- Sedge, Umbrella plant response rating [1, 5]: 80
- Plant response rating, Sedge, Umbrella [1, 6]: 85
- Barnyardgrass plant response rating (barnyardgrass; 62 g ai/ha, scale 0 to 100 (0 no effect, 100 complete control)): 45
- Barnyardgrass plant response rating (barnyardgrass; [4]): 65
- Barnyardgrass plant response rating (barnyardgrass; [5]): 75
- Plant response rating, Barnyardgrass (barnyardgrass; [6]): 90
